Assay results published in patent publication US6413935B1, “Induction of immune response against desired determinants” (priority 1993, dated 2002).
pIC50: −log10 of the molar value. Read-outs that look alike come from different tables or passages of the source. Non-standard residues stand in square brackets, D forms with d. Residues, ends and D or L forms follow the SMILES beside them. Cha = N[C@@H](CC1CCCCC1)C(=O)O

Assays:
DR5 = conditions: read-out: PADRE Class II Binding Affinities DR5
DQ3.1 = conditions: read-out: PADRE Class II Binding Affinities; Table VIII A
DR7 = conditions: read-out: PADRE Class II Binding Affinities DR7

CC(C)C[C@H](NC(=O)[C@@H](NC(=O)[C@H](C)NC(=O)[C@H](C)NC(=O)[C@H](C)NC(=O)[C@H](C)NC(=O)[C@H](CC1CCCCC1)NC(=O)[C@H](C)NC(=O)[C@@H](C)N)[C@@H](C)O)C(=O)N[C@@H](CCCCN)C(=O)N[C@@H](CCC(N)=O)C(=O)N[C@@H](C)C(=O)N[C@H](C)C(N)=O [Peptide 906.42] (H-[dA]A[Cha]AAAATLKQA[dA]-NH2; N-terminus and C-terminus assumed)
pIC50 (DR5; Table VIII A): 7.53
pIC50 (DQ3.1): 6.32

CC(C)C[C@H](NC(=O)[C@@H](NC(=O)[C@H](Cc1c[nH]cn1)NC(=O)[C@H](C)NC(=O)[C@H](CCCCN)NC(=O)[C@@H](NC(=O)[C@H](CC1CCCCC1)NC(=O)[C@H](CCCCN)NC(=O)[C@@H](C)N)C(C)C)[C@@H](C)O)C(=O)N[C@@H](CCCCN)C(=O)N[C@@H](C)C(=O)N[C@@H](C)C(=O)N[C@H](C)C(N)=O [Peptide 965.071]
pIC50 (DR5; Table IX): 7.98
pIC50 (DR5; Table IX, listed as 965.072): 8.32
pIC50 (DR7; Table IX, listed as 965.072): 6.26

CC(C)C[C@H](NC(=O)[C@@H](NC(=O)[C@H](C)NC(=O)[C@H](C)NC(=O)[C@H](C)NC(=O)[C@H](C)NC(=O)[C@H](CC1CCCCC1)NC(=O)[C@H](C)NC(=O)[C@@H](C)N)[C@@H](C)O)C(=O)N[C@@H](CCCCN)C(=O)N[C@@H](CCC(=O)O)C(=O)N[C@@H](C)C(=O)N[C@H](C)C(N)=O [Peptide 906.41] (H-[dA]A[Cha]AAAATLKEA[dA]-NH2; N-terminus and C-terminus assumed)
pIC50 (DR7; Table VIII A): 6.60

CC(C)C[C@H](NC(=O)[C@@H](NC(=O)[C@H](CC(N)=O)NC(=O)[C@H](C)NC(=O)[C@H](Cc1c[nH]c2ccccc12)NC(=O)[C@@H](NC(=O)[C@H](CC1CCCCC1)NC(=O)[C@H](CCCCN)NC(=O)[C@@H](C)N)C(C)C)[C@@H](C)O)C(=O)N[C@@H](CCCCN)C(=O)N[C@@H](C)C(=O)N[C@@H](C)C(=O)N[C@H](C)C(N)=O [Peptide 965.031]
pIC50 (DR5; Table IX): 8.08
pIC50 (DR5; Table IX, listed as 965.032): 8.54
pIC50 (DR7; Table IX): 6.68

CC(C)C[C@H](NC(=O)[C@@H](NC(=O)[C@H](C)NC(=O)[C@H](C)NC(=O)[C@H](C)NC(=O)[C@H](C)NC(=O)[C@H](CC1CCCCC1)NC(=O)[C@H](C)NC(=O)[C@@H](C)N)[C@@H](C)O)C(=O)N[C@@H](CCCCN)C(=O)N[C@@H](Cc1ccccc1)C(=O)N[C@@H](C)C(=O)N[C@H](C)C(N)=O [Peptide 906.44] (H-[dA]A[Cha]AAAATLKFA[dA]-NH2; N-terminus and C-terminus assumed)
pIC50 (DR5; Table VIII A): 6.98
pIC50 (DR7; Table VIII A): 7.60

CC(C)C[C@H](NC(=O)[C@@H](NC(=O)[C@H](C)NC(=O)[C@H](C)NC(=O)[C@H](C)NC(=O)[C@H](C)NC(=O)[C@H](CC1CCCCC1)NC(=O)[C@H](C)NC(=O)[C@@H](C)N)[C@@H](C)O)C(=O)N[C@@H](CCCCN)C(=O)N[C@@H](C)C(=O)N[C@@H](CCC(=O)O)C(=O)N[C@H](C)C(N)=O [Peptide 906.47] (H-[dA]A[Cha]AAAATLKAE[dA]-NH2; N-terminus and C-terminus assumed)
pIC50 (DR5; Table VIII A): 7.59
pIC50 (DQ3.1): 7.22

CC(C)C[C@H](NC(=O)[C@@H](NC(=O)[C@H](C)NC(=O)[C@@H](NC(=O)[C@H](C)NC(=O)[C@H](C)NC(=O)[C@H](CC1CCCCC1)NC(=O)[C@H](C)NC(=O)[C@@H](C)N)C(C)C)[C@@H](C)O)C(=O)N[C@@H](CCCCN)C(=O)N[C@@H](C)C(=O)N[C@@H](C)C(=O)N[C@H](C)C(N)=O [Peptide 906.21] (H-[dA]A[Cha]AAVATLKAA[dA]-NH2; N-terminus and C-terminus assumed)
pIC50 (DR5; Table VIII A): 8.49
pIC50 (DR7; Table VIII A): 7.37

CC(C)C[C@H](NC(=O)[C@@H](NC(=O)[C@H](C)NC(=O)[C@H](C)NC(=O)[C@H](C)NC(=O)[C@H](C)NC(=O)[C@H](CC1CCCCC1)NC(=O)[C@H](C)NC(=O)[C@@H](C)N)[C@@H](C)O)C(=O)N[C@@H](Cc1ccccc1)C(=O)N[C@@H](C)C(=O)N[C@@H](C)C(=O)N[C@H](C)C(N)=O [Peptide 906.38]
pIC50 (DR5; Table VIII A): 7.72
pIC50 (DR7; Table VIII A): 7.25
